Experimental data from patent US10155751B2, “Pyrazolyl-substituted heteroaryls and their use as medicaments” (Boehringer Ingelheim International GmbH, priority 2015, dated 2018).
Read-outs that look alike come from different tables or passages of the source.

How the values were obtained:
[1] = system: human hepatocytes; assay: Human hepatocyte stability test; format: in vitro ADME; conditions: human hepatocyte suspension, percent of hepatic blood flow
Method: A more comprehensive way to measure the metabolic stability of a compound of the instant invention than microsomal stability (section 5.6) is the human hepatocyte stability test as described below. Herein the metabolic degradation for the compound in question is performed in a human hepatocyte suspension.
Human hepatocytes (typically cryopreserved) are incubated in an appropriate buffer system (e.g. Dulbecco's modified eagle medium plus 3.5 μg glucagon/500 mL, 2.5 mg insulin/500 mL and 3.75 mg/500 mL hydrocortison) containing 5% species serum.
Following a (typically) 30 min preincubation in an incubator (37° C., 10% CO2) 5 μl of the solution of the compound to be tested ([…]; from 2 mM in DMSO stock solution diluted 1:25 with medium) are added into 395 μl hepatocyte suspension (cell density is in the range of 0.25-5 Mio cells/mL, typically 1 Mio cells/mL; the final concentration of the compound in question is […], the final DMSO concentration is 0.05%).
The cells are incubated for six hours (incubator, orbital shaker) and samples (25 μl) are taken at 0, 0.5, 1, 2, 4 and 6 hours. Samples are transferred into acetonitrile and pelleted by centrifugation (5 min). The supernatant is transferred to a new 96-deepwell plate, evaporated under nitrogen and resuspended.
The decline of the compound to be tested is analyzed by HPLC-MS/MS.
CLint is calculated as follows CL_INTRINSIC=Dose/AUC=(C0/CD)/(AUD+clast/k)×1000/60.
C0: initial concentration in the incubation [μM], CD: cell density of vital cells [10^6 cells/mL], AUD: area under the data [μM×h], clast: concentration of last data point [μM], k: slope of the regression line for the compound in question decline [h−1].
The calculated in vitro hepatic intrinsic clearance can be scaled up to the intrinsic in vivo hepatic Clearance and used to predict hepatic in vivo blood clearance (CL) by the use of a liver model (well stirred model). CL_INTRINSIC_INVIVO [ml/min/kg]=(CL_INTRINSIC [μL/min/10^6cells]×hepatocellularity[10^6 cells/g liver]×liver factor [g/kg bodyweight])/1000 CL [ml/min/kg]=CL_INTRINSIC_INVIVO [ml/min/kg]×hepatic blood flow [ml/min/kg]/(CL_INTRINSIC_INVIVO [ml/min/kg]+hepatic blood flow [ml/min/kg]) Qh[%]=CL [ml/min/kg]/hepatic blood flow [ml/min/kg]) […]
Hepatocellularity, human: 120×10^6 cells/g liver
Liver factor, human: 25.7 g/kg bodyweight
Blood flow, human: 21 ml/(min×kg)
A satisfying human hepatocyte stability for a compound in question measured by this assay is represented by a Qh<20% (whereby the stability is better, the lower the Qh-value is).

[2] = target: Recombinant human SYK (amino acids 342-635), GST-SYK kinase fusion protein (Homo sapiens (Human), UniProt P43405); assay: SYK kinase inhibition test (Kinase Glo luminescence); format: biochemical
Method: The catalytic activity of the GST-SYK kinase fusion protein was determined using the Kinase Glo® Luminescence Kinase test (Promega; V6712). In this homogeneous test the amount of ATP remaining after the kinase reaction is quantified by a luciferin-luciferase reaction using luminescence. The luminescence signal obtained correlates with the amount of ATP still present and thus correlates inversely with the activity of the kinase.
The test compounds were dissolved in 100% DMSO at a concentration of 10 mM and diluted in DMSO to a concentration of 1 mM. Serial Dilution is done in 100% DMSO. All further dilutions of the substances were carried out with test buffer (25 mM HEPES pH7.5; 25 mM MgCl2; 5 mM MnCl2; 50 mM KCl; 0.2% HSA; 0.01% CHAPS; 100 μM Na3VO4; 0.5 mM DTT). Dilution steps and concentration range were adapted according to need. 7 μl aliquots of these dilutions were transferred into a 384-well Optiplate (Perkin Elmer, #6007290). GST-SYK was diluted to 12 nM in the test buffer and 5 μl of this dilution were used in the kinase test (final concentration of SYK=4 nM in a total volume of 15 μl). After 15 minutes incubation at room temperature 3 μl of a mixture of 750 nM ATP and 100 μg/ml poly (L-Glutamic acid L-Tyrosine 4:1), Fluka #81357) in test buffer were added to each well and the incubation was continued for a further 60 minutes at room temperature.
Positive controls are the reaction mixtures that contain no test substance; negative controls (blanks) are reaction mixtures that contain no kinase.
After 60 minutes, 10 μl Kinase-Glo® solution (Promega, Cat. # V6712) (heated to room temperature) were added to each well and incubation was continued for a further 15 minutes. The plates were read in Envision Luminescence Reader (Perkin-Elmer).
The output file of the reader is a csv file that contains the well number and measured relative light units (RLU). For data evaluation and calculation, the measurement of the negative control was set as 100% ctrl and the measurement of the positive control was set as 0% ctrl. Based on this values the % value for the measurement of each substance concentration was calculated using an Assay Explorer software (Accelrys). Normally, the % ctrl values calculated are between 0% and 100% values but may also occur outside these limits in individual cases based on variability or compound characteristics. The IC50-values were calculated from the % ctrl values using Assay Explorer software. Calculation: [y=(a−d)/(1+(x/c)^b)+d] a=low value, d=high value; x=conc M; c=IC50 M; b=hill; y=% ctrl.
Satisfying SYK inhibitory capacities are represented by an IC50(SYK)-Value measured by this assay of <10 nMol.

[3] = read-out: SYK inhibition IC50-value (chapter 5.1)
[4] = read-out: IC50(SYK) in SYK-inhibition assay

Compound | stability in human hepatocytes (chapter 5.7) HEPhu [1] | IC50 [2, 3] | IC50 [2, 4]
Cc1c2c(O[C@H](C)[C@H]3CNC(=O)C3)cc(-c3cnn(CC4CC4)c3)cc2nn1C [Example 8, (R)-4-{(R)-1-[6-(1-Cyclopropylmethyl-1H-pyrazol-4-yl)-2,3-dimethyl-2H-indazol-4-yloxy]-ethyl}-pyrrolidin-2-one] | 5 % Qh | 1.4 nM | 
C[C@@H](Oc1cc(-c2cnn(C3CCC(F)(F)C3)c2)cc2nn(C)c(F)c12)[C@H]1CNC(=O)C1 (stereo partly shown) [Example 7] | <4 % Qh | 1.3 nM | 
Cc1c2c(O[C@H](C)[C@H]3CNC(=O)C3)cc(-c3cnn(C4CC4)c3)cc2nn1C [Example 20, (R)-4-{(R)-1-[6-(1-Cyclopropyl-1H-pyrazol-4-yl)-2,3-dimethyl-2H-indazol-4-yloxy]-ethyl}-pyrrolidin-2-one] | <4 % Qh | 2.5 nM | 
Cc1cc2c(O[C@H](C)[C@H]3CNC(=O)C3)cc(-c3cnn(C(C)(C)C)c3)cn2n1 [example 6.60 on page 587 of WO15017610, reference compound] | <4 % Qh | 10.3 nM | 10.3 nM
Cc1c2c(O[C@H](C)[C@H]3CNC(=O)C3)cc(-c3cnn(C(C)(C)C#N)c3)cc2nn1C [Example 17, 2-(4-{2,3-Dimethyl-4-[(R)-1-((R)-5-oxo-pyrrolidin-3-yl)-ethoxy]-2H-indazol-6-yl}-pyrazol-1-yl)-2-methyl-propionitrile] | 4 % Qh | 2.9 nM | 
CC(C)n1cc(-c2cc(O[C@H](C)[C@H]3CNC(=O)C3)c3c(F)n(C)nc3c2)cn1 [Example 2, (R)-4-{(R)-1-[3-Fluoro-6-(1-isopropyl-1H-pyrazol-4-yl)-2-methyl-2H-indazol-4-yloxy]-ethyl}-pyrrolidin-2-one] | <4 % Qh | 1.3 nM | 
Cc1c2c(O[C@H](C)[C@H]3CNC(=O)C3)cc(-c3cnn(C4CCC4)c3)cc2nn1C [Example 21, (R)-4-{(R)-1-[6-(1-Cyclobutyl-1H-pyrazol-4-yl)-2,3-dimethyl-2H-indazol-4-yloxy]-ethyl}-pyrrolidin-2-one] | 7 % Qh | 1.2 nM | 
Cc1cnn2cc(-c3cnn(C(C)(C)C)c3)nc(O[C@H](C)[C@H]3CNC(=O)C3)c12 [example 5.20 on page 506 of WO15017610, reference compound] | 31 % Qh | 0.2 nM | < 10 nM
Cc1c2c(O[C@H](C)[C@H]3CNC(=O)C3)cc(-c3cnn([C@@H]4CCOC(C)(C)C4)c3)cc2nn1C [Example 9, (R)-4-((R)-1-{6-[1-((R)-2,2-Dimethyl-tetrahydro-pyran-4-yl)-1H-pyrazol-4-yl]-2,3-dimethyl-2H-indazol-4-yloxy}-ethyl)-pyrrolidin-2-one] | 6 % Qh | 1.1 nM | 
C[C@@H](Oc1cc(-c2cnn(C3CC3)c2)cc2nn(C)c(F)c12)[C@H]1CNC(=O)C1 [Example 5, (R)-4-{(R)-1-[6-(1-Cycloprop-yl-1H-pyrazol-4-yl)-3-fluoro-2-methyl-2H-indazol-4-yloxy]-ethyl}-pyrrolidin-2-one] | <4 % Qh | 3.3 nM | 
Cc1c2c(O[C@H](C)[C@H]3CNC(=O)C3)cc(-c3cnn([C@H]4CO[C@@H]5CCCO[C@@H]54)c3)cc2nn1C [Example 10, 4-(1-{6-[(R)-(3S,3aR,7aR)-1-(Hexahydro-furo[3,2-b]pyran-3-yl)-1H-pyrazol-4-yl]-2,3-dimethyl-2H-indazol-4-yloxy}-ethyl)-pyrrolidin-2-one] | 9 % Qh | 3.3 nM | 
Cc1c2c(O[C@H](C)[C@H]3CNC(=O)C3)cc(-c3cnn(CCF)c3)cc2nn1C [Example 11, (R)-4-((R)-1-{6-[1-(2-Fluoro-ethyl)-1H-pyrazol-4-yl]-2,3-dimethyl-2H-indazol-4-yloxy}-ethyl)-pyrrolidin-2-one] | 4 % Qh | 1.5 nM | 
Cc1c2c(O[C@H](C)[C@H]3CNC(=O)C3)nc(-c3c[nH]nc3C(C)(C)C)cc2nn1C [Example 4, (R)-4-{(R)-1-[6-(3-tert-Butyl-1H-pyrazol-4-yl)-2,3-dimeth-yl-2H-pyrazolo[4,3-c]pyridin-4-yloxy]-ethyl}-pyrrolidin-2-one] | 10 % Qh | 2.2 nM | 
Cc1c2c(O[C@H](C)[C@H]3CNC(=O)C3)cc(-c3cnn(C4CC(C)(C)OC4(C)C)c3)cc2nn1C (stereo partly drawn) [Example 16, (R)-4-((R)-1-{2,3-Dimethyl-6-[1-(2,2,5,5-tetramethyl-tetrahydro-furan-3-yl)-1H-pyrazol-4-yl]2H-indazol-4-yloxy}-ethyl)-pyrrolidin-2-one] | 6 % Qh | 3.1 nM | 
Cc1c2c(O[C@H](C)[C@H]3CNC(=O)O3)nc(-c3cnn(C(C)(C)C)c3)cc2nn1C [Example 3, (R)-5-{(R)-1-[6-(1-tert-Butyl-1H-pyrazol-4-yl)-2,3-dimethyl-2H-pyrazolo[4,3-c]pyridin-4-yloxy]-ethyl}-oxazolidin-2-one] | 7 % Qh | 2 nM | 
Cc1c2c(O[C@H](C)[C@H]3CNC(=O)C3)cc(-c3cnn(C(C)C)c3)cc2nn1C [Example 18, (R)-4-{(R)-1-[6-(1-Isopropyl-1H-pyrazol-4-yl)-2,3-dimethyl-2H-indazol-4-yloxy]-ethyl}-pyrrolidin-2-one] | <4 % Qh | 1.1 nM | 
Cc1cnn2cc(-c3cnn(C(C)(C)C)c3)cc(O[C@H](C)[C@H]3CNC(=O)C3)c12 [example 6.09 on page 559 of WO15017610, reference compound] | 17 % Qh | 0.1 nM | < 10 nM
C[C@@H](Oc1cc(-c2cnn(C(C)(C)C)c2)cc2ncn(C)c12)[C@H]1CNC(=O)C1 [example 3B.22 on page 219 of WO15017610, reference compound] | 5 % Qh | 0.8 nM | < 10 nM
C[C@@H](Oc1nc(-c2cnn(C(C)(C)C)c2)cc2ncn(C)c12)[C@H]1CNC(=O)C1 [example 3A.02, on page 196 of WO15017610, reference compound] | 7 % Qh | 1.9 nM | < 10 nM
